In PMC3127977, “No relevant cardiac, pharmacokinetic or safety interactions between roflumilast and inhaled formoterol in healthy subjects: an open-label, randomised, actively controlled study” (BMC Clinical Pharmacology, 2011):
Where two headings read alike, the source gives them in different places.

How the values were obtained:
[1] = cited from earlier work
[2] = Steady-state plasma pharmacokinetics (HPLC-MS/MS) in healthy men; oral roflumilast 500 μg once daily, inhaled formoterol 24 μg twice daily; details: in vivo
Experimental: For Regimen A, subjects received 500 μg oral roflumilast once daily (daily dose: one tablet of roflumilast 500 μg) from the morning of Day 2 to the morning of Day 18. […] For Regimen B, subjects received 24 μg formoterol for oral inhalation delivered by a DPI device (Foradil® P) twice daily, once in the morning and once in the evening from the morning of Day 2 to the evening of Day 18.
Pre-dose blood samples for determination of trough levels were taken on Days 9 and 10 for Regimen A (morning only), and on Days 6 and 7 (morning and evening) for Regimen B. Blood samples (4.5 mL) were collected in heparinised tubes and plasma was obtained by centrifugation at 1550 g for 15 minutes. Plasma samples were stored at -20°C or below for roflumilast, and at -70°C for formoterol. Plasma concentrations of roflumilast and roflumilast N-oxide were determined using high-performance liquid chromatography coupled with tandem mass spectrometry (HPLC-MS/MS). […] Roflumilast and roflumilast N-oxide standard curves were valid up to 20 ng/mL and 40 ng/mL, respectively. Determination of roflumilast and roflumilast N-oxide was performed at Altana Pharma AG, Konstanz, Germany (Nycomed GmbH). Plasma concentrations of formoterol were determined using HPLC-MS/MS. The LLOQ in plasma was 0.4 pg/mL using a sample volume of 1.0 mL. […] Determination of formoterol was performed at pharm-analyt Labor GmbH, Baden, Austria, under the supervision of Altana Pharma AG(Nycomed GmbH).
For roflumilast, roflumilast N-oxide and formoterol, the maximum plasma concentration (Cmax) was derived directly from the plasma concentrations. The AUC from time zero to the time of the last quantifiable concentration, which corresponded to the dosing interval of each analyte (AUC0-τ), was estimated using the linear trapezoidal method. Apparent clearance at steady state (CL/F; calculated by dose/AUCτ) was reported for roflumilast only. […] The calculation of tPDE4i was based on the equation described in Lahu et al..

[3] = cited from earlier work; remark: listed apart in the source
[4] = CYP3A4 inhibitors co-administered with roflumilast

In the case of `O=C(Nc1c(Cl)c[n+]([O-])cc1Cl)c1ccc(OC(F)F)c(OCC2CC2)c1` [Roflumilast N-oxide], the “AUC greater than that of roflumilast” value [1] is given as 10 fold, the “median effective plasma half-life” value ([1]; repeated dose) is given as 30 h and the “median time to maximum plasma concentration (tmax)” value ([1]; repeated dose) is given as 8 h. The “changes in steady-state pharmacokinetics when the other drug was added” value [2] was “no relevant changes”.
For `CC[C@H]1OC(=O)[C@H](C)[C@@H](O[C@H]2C[C@@](C)(OC)[C@@H](O)[C@H](C)O2)[C@H](C)[C@@H](O[C@@H]2O[C@H](C)C[C@H](N(C)C)[C@H]2O)[C@](C)(O)C[C@@H](C)C(=O)[C@H](C)[C@@H](O)[C@]1(C)O` [erythromycin], the “increase of tPDE4i” value [3, 4] is listed as 8-9%.
For `CC(=O)N1CCN(c2ccc(OCC3COC(Cn4ccnc4)(c4ccc(Cl)cc4Cl)O3)cc2)CC1` (centres unmarked) [ketoconazole], the “increase of tPDE4i” value [3, 4] is listed as 8-9%.
In the case of `CCn1cc(C(=O)O)c(=O)c2cc(F)c(N3CCNCC3)nc21` [enoxacin], the “increase of tPDE4i” value ([3]; CYP1A2 or dual CYP3A4/1A2 inhibitor co-administered with roflumilast) is given as 25%.
In the case of `CCCC1O[C@@H]2C[C@H]3[C@@H]4CCC5=CC(=O)C=C[C@]5(C)[C@H]4[C@@H](O)C[C@]3(C)[C@]2(C(=O)CO)O1` (some centres unmarked) [budesonide], the “pharmacokinetic interaction on co-administration with roflumilast” value ([3]; healthy volunteers) is listed as “no relevant pharmacokinetic interactions”.
